Measurements reported in patent US9206236B2, “Peptides for treating cancer” (Gene Signal International SA, priority 2010, dated 2015).

Tests used:
[1] = test system: NCI-H460 tumors; experiment: NCI-H460 tumor xenograft in nude mice, tumor volume (Example 2); type: in vivo
Experimental: (§1) H460 cell line has cytology compatible with human Non-Small Cell Lung Cancer (NSCL). Cells were grown in MEM medium containing 10% FCS at 37° C., 5% CO2 humidified atmosphere. The absence of mycoplasms was confirmed by using the PCR Mycoplasma Detection kit (Takara). All experiments were reviewed by the Genopole's institutional animal care and use committee and were performed in accordance with institutional guidelines for animal care. Female BALB/c nu/nu mice (n=30) were used at 5-6 weeks of age. The animals were housed in laminar air-flow cabinets under pathogen-free conditions with a 12 h light/12 h dark schedule, and fed autoclaved standard chow and water ad libitum. The NCI-H460 human NSCL cell line was obtained from American Type Culture Collection (ATCC) and cells were grown in RPMI medium 1640 supplemented with 1 μM sodium pyruvate. Tumor cells (10^7 cells in 200 μl of HBSS) were injected subcutaneously into the right flanks of mice. After engraftment, tumor volume was measured by Vernier callipers, and calculated as described in Balsari A et al. (Balsari A et al. (2004) Eur J Cancer 40: 1275-1281). At tumor volume about 150 mm3, animals were randomized, and separated into five groups of five animals. Control mice (group 1) were intraperitoneally injected with vehicle (10% DMSO in buffer saline) every day. GS-0 was dissolved in vehicle and intraperitoneally injected (group 2) every day (12 injections). GS-1 was dissolved in vehicle and intraperitoneally injected (group 3) every day (12 injections). Tumor volume and body weight were measured every other day over the treatment period (12 days). GS-1 as well as the control peptide GS-0 were solubilized in DMSO and the resulting solutions were diluted 10 times with phosphate buffer saline (PBS) to obtain a concentration of 1 mg of peptide/ml of 10% DMSO in PBS. At this concentration, all peptides were soluble in 10% DMSO.

[2] = test system: NCI-H460 tumors; experiment: NCI-H460 tumor xenograft in nude mice, tumor volume (Example 3); type: in vivo
Experimental: as §1, with “(ATCC)” for “(ATCC) and cells”, “in Balsam” for “in Balsari”, “150 mm^3,” for “150 mm3,”, “injections). GS-2” for “injections). GS-1”, “days). GS-2” for “days). GS-1”

[3] = Solubility of peptides in 10% DMSO in PBS; type: physicochemical; details: 1 mg of peptide/ml of 10% DMSO in PBS
Experimental: GS-1 as well as the control peptide GS-0 were solubilized in DMSO and the resulting solutions were diluted 10 times with phosphate buffer saline (PBS) to obtain a concentration of 1 mg of peptide/ml of 10% DMSO in PBS. At this concentration, all peptides were soluble in 10% DMSO.
GS-2 as well as the control peptide GS-0 were solubilized in DMSO and the resulting solutions were diluted 10 times with phosphate buffer saline (PBS) to obtain a concentration of 1 mg of peptide/ml of 10% DMSO in PBS. At this concentration, all peptides were soluble in 10% DMSO.

[4] = 8 mg/kg i.p. daily for 12 days, n=5

Ac-NYICMG-NH2 [GS-0, NYICMG, reference compound]
influence on the in vivo growth of the tumor NCI-H460 (in words) ([1]; 8 mg/kg i.p. daily for 12 days): no significant influence | mean tumor volume at the end of treatment [1, 4]: 1114.83 ± 534.50 mm^3 | Mean tumor volume D1 ([1]; Table 2, 8 mg/kg i.p. daily, day 1): 123 mm³ | Mean tumor volume D3 ([1]; Table 2, 8 mg/kg i.p. daily, day 3): 233 mm³ | Mean tumor volume D5 ([1]; Table 2, 8 mg/kg i.p. daily, day 5): 335 mm³ | Mean tumor volume D7 ([1]; Table 2, 8 mg/kg i.p. daily, day 7): 402 mm³ | Mean tumor volume D9 ([1]; Table 2, 8 mg/kg i.p. daily, day 9): 553 mm³ | Mean tumor volume D11 ([1]; Table 2, 8 mg/kg i.p. daily, day 11): 751 mm³ | Mean tumor volume D13 ([1]; Table 2, 8 mg/kg i.p. daily, day 13): 1110 mm³ | influence on the in vivo growth of the tumor NCI-H460 (in words) ([2]; 8 mg/kg i.p. daily for 12 days): no significant influence | mean tumor volume at the end of treatment [2, 4]: 1114.83 ± 534.50 mm^3 | Mean tumor volume D1 ([2]; Table 4, 8 mg/kg i.p. daily, day 1): 123 mm³ | Mean tumor volume D3 ([2]; Table 4, 8 mg/kg i.p. daily, day 3): 233 mm³ | Mean tumor volume D5 ([2]; Table 4, 8 mg/kg i.p. daily, day 5): 335 mm³ | Mean tumor volume D7 ([2]; Table 4, 8 mg/kg i.p. daily, day 7): 402 mm³ | Mean tumor volume D9 ([2]; Table 4, 8 mg/kg i.p. daily, day 9): 553 mm³ | Mean tumor volume D11 ([2]; Table 4, 8 mg/kg i.p. daily, day 11): 751 mm³ | Mean tumor volume D13 ([2]; Table 4, 8 mg/kg i.p. daily, day 13): 1110 mm³ | solubility in 10% DMSO [3]: soluble
